According to US20130302442A1, “METHODS OF USING (4S,4AS,5AR,12AS)-4-DIMETHYLAMINO-3,10,12,12A-TETRAHYDROXY-7-[(METHOXY(METHYL)AMINO)-METHYL]-1,11-DIOXO-1,4,4A,5,5A,6,11,12A-OCTAHYDRO-NAPHTHACENE-2-CARBOXYLIC ACID AMIDE” (priority 2012, published 2013):
Converted amounts (≈) assume the structure as drawn. Like-named read-outs stand apart in the source and are kept apart here.

What was measured:
[1] = test system: Streptococcus constellatus; assay: In vitro MIC testing against anaerobic bacteria; type: cell-based; conditions: Streptococcus constellatus, ATCC27823
[2] = test system: Streptococcus intermedius; assay: In vitro MIC testing against anaerobic bacteria; type: cell-based; conditions: ATCC27335; Streptococcus intermedius 1203, ATCC 27335
[3] = test system: Fusobacterium necrophorum; assay: In vitro MIC testing against anaerobic bacteria; type: cell-based; conditions: ATCC25286; Fusobacterium necrophorum 3963, ATCC 25286; read-out: MIC
[4] = test system: P. acnes; assay: In vitro MIC testing, antibacterial spectrum of activity; type: cell-based, Propionibacterium acnes; conditions: for MIC50: read-out: MIC50; for MIC90: read-out: MIC90
[5] = test system: S. aureus; assay: as above; type: cell-based, Staphylococcus aureus; conditions: for MIC50 / MIC90 / MIC: Staphylococcus aureus; for MIC50: read-out: MIC50; for MIC90: read-out: MIC90
[6] = test system: S. pyogenes; assay: as above; type: cell-based; conditions: for MIC50: read-out: MIC50
[7] = test system: Streptococcus spp. [Group C]; assay: as above; type: cell-based; conditions: Streptococcus spp. [Group C] (30 isolates); for MIC50: read-out: MIC50
[8] = test system: E. coli; assay: as above; type: cell-based; conditions: E. coli [tetS] (7 isolates)
[9] = test system: K. pneumoniae; assay: as above; type: cell-based; conditions: for MIC50 / MIC90: K. pneumoniae (31 isolates)
[10] = test system: Chlamydia trachomatis; assay: In vitro susceptibility testing of Chlamydia trachomatis in HEp-2 cells (first study); type: cell-based; conditions: Chlamydia trachomatis, C. trachomatis strains, read-out: MIC at which 90% of the strains were inhibited (MIC90)
[11] = test system: methicillin-sensitive S. aureus (MSSA); assay: In vitro MIC against isolates of MSSA; type: cell-based, Staphylococcus aureus
[12] = test system: hospital-associated methicillin-resistant S. aureus (MRSA-HA); assay: In vitro MIC against isolates of MRSA-HA; type: cell-based, Staphylococcus aureus; conditions: MRSA-HA (33 isolates)
[13] = test system: community-acquired methicillin-resistant S. aureus (MRSA-CA); assay: In vitro MIC against isolates of MRSA-CA; type: cell-based, Staphylococcus aureus
[14] = test system: Chlamydia trachomatis; assay: Susceptibility testing (MIC, MBC) of 10 isolates of C. trachomatis in HEp-2 cells; type: cell-based
[15] = test system: Chlamydia pneumoniae; assay: Susceptibility testing (MIC, MBC) of 10 isolates of C. pneumoniae in HEp-2 cells; type: cell-based
[16] = test system: E. cloacae; assay: In vitro MIC testing, antibacterial spectrum of activity; type: cell-based; conditions: Enterobacter cloacae; E. cloacae (30 isolates)
[17] = test system: Salmonella Spp.; assay: as above; type: cell-based; conditions: Salmonella
[18] = Cutibacterium acnes, P. acnes [clinical isolates] (55 isolates)
[19] = Cutibacterium acnes, P. acnes [tetS] (13 isolates)
[20] = MRSA, S. aureus [MRSA] (31 isolates)
[21] = MSSA, S. aureus [MSSA] (32 isolates)
[22] = S. pyogenes [tetS] (5 isolates)
[23] = Streptococcus pyogenes, S. pyogenes strain PBS # 330, tetO
[24] = Streptococcus pyogenes, S. pyogenes (32 isolates)
[25] = Staphylococcus aureus, MRSA-CA (33 isolates)

## C[C@H]1c2cccc(O)c2C(=O)C2=C(O)[C@]3(O)C(=O)C(C(N)=O)=C(O)[C@@H](N(C)C)[C@@H]3[C@@H](O)[C@@H]21 [Doxycycline, doxycycline]
[1]
  MIC: 16 µg/mL (≈ 36 µM)
[2]
  MIC: 0.5 µg/mL (≈ 1.13 µM)
[3]
  MIC: 0.5 µg/mL (≈ 1.13 µM)
[4]; Cutibacterium acnes
  MIC: 8 µg/mL (≈ 18 µM)
[4]; [18]
  MIC50: 0.5 µg/mL (≈ 1.13 µM)
  MIC90: 2 µg/mL (≈ 4.5 µM)
[4]; [19]
  MIC50: 0.25 µg/mL (≈ 0.563 µM)
  MIC90: 1 µg/mL (≈ 2.25 µM)
[4]; P. acnes [clinical isolates] (55 isolates)
  MIC Range: 0.25 to 16 µg/mL
[4]; P. acnes [tetR] (2 isolates)
  MIC Range: 8-8 μg/mL
[4]; P. acnes [tetS] (2 isolates)
  MIC Range: 0.12 to 0.5 µg/mL
[4]; P. acnes [tetS] (13 isolates)
  MIC Range: 0.25 to 1 µg/mL
[5]; S. aureus [MRSA] (31 isolates)
  MIC Range: 0.12 to 2 µg/mL
[5]; S. aureus [MSSA] (32 isolates)
  MIC Range: 0.12 to 8 µg/mL
[5]; S. aureus [tetR] (10 isolates)
  MIC Range: 1 to 16 µg/mL
  MIC50: 4 µg/mL (≈ 9 µM)
  MIC90: 16 µg/mL (≈ 36 µM)
[5]; S. aureus [tetS] (20 isolates)
  MIC Range: ≦0.06-0.25 μg/mL
  MIC50: ≤ 0.06 µg/mL
  MIC90: 0.25 µg/mL (≈ 0.563 µM)
[5]; [20]
  MIC50: 0.12 µg/mL (≈ 0.27 µM)
  MIC90: 0.25 µg/mL (≈ 0.563 µM)
[5]; [21]
  MIC50: 0.12 µg/mL (≈ 0.27 µM)
  MIC90: 0.25 µg/mL (≈ 0.563 µM)
[5]; S. aureus strain PBS # 1309, tetK
  MIC: 2 µg/mL (≈ 4.5 µM)
[5]; S. aureus strain PBS # 1310, tetM
  MIC: 16 µg/mL (≈ 36 µM)
[5]; S. aureus strain PBS # 1739, tet38
  MIC: 2 µg/mL (≈ 4.5 µM)
[6]; S. pyogenes (32 isolates)
  MIC Range: 0.06 to 8 µg/mL
[6]; S. pyogenes [tetR] (5 isolates)
  MIC Range: 4 to 8 µg/mL
[6]; [22]
  MIC Range: ≦0.06-0.125 μg/mL
[6]; [23]
  MIC: 8 µg/mL (≈ 18 µM)
[6]; Streptococcus pyogenes, S. pyogenes strain PBS # 792, tetM
  MIC: 4 µg/mL (≈ 9 µM)
[6]; [24]
  MIC50: 0.12 µg/mL (≈ 0.27 µM)
[6]; Streptococcus pyogenes, S. pyogenes (32 isolates), read-out: MIC90
  MIC90: 4 µg/mL (≈ 9 µM)
[7]
  MIC Range: 0.06 to 16 µg/mL
  MIC50: 0.12 µg/mL (≈ 0.27 µM)
[7]; read-out: MIC90
  MIC90: 8 µg/mL (≈ 18 µM)
[8]
  MIC Range: 0.5 to 4 µg/mL
[9]; K. pneumoniae [tetS] (7 isolates)
  MIC Range: 0.5 to 8 µg/mL
[9]; Klebsiella pneumoniae
  MIC50: 8 µg/mL (≈ 18 µM)
  MIC90: > 32 µg/mL
[10]
  MIC90: 0.125 µg/mL (≈ 0.281 µM)
[11]; MSSA (34 isolates)
  MIC Range: 0.12 to 8 µg/mL
[11]; Staphylococcus aureus, MSSA (34 isolates)
  MIC50: 0.25 µg/mL (≈ 0.563 µM)
[11]; Staphylococcus aureus, MSSA (34 isolates), read-out: MIC90
  MIC90: 0.5 µg/mL (≈ 1.13 µM)
[11]; Staphylococcus aureus, single strain of doxycycline-resistant MSSA
  MIC: 8 µg/mL (≈ 18 µM)
[12]
  MIC Range: 0.12 to 1 µg/mL
[12]; Staphylococcus aureus
  MIC50: 0.25 µg/mL (≈ 0.563 µM)
  MIC90: 0.5 µg/mL (≈ 1.13 µM)
[13]; MRSA-CA (33 isolates)
  MIC Range: 0.12 to 8 µg/mL
[13]; [25]
  MIC50: 0.12 µg/mL (≈ 0.27 µM)
  MIC90: 2 µg/mL (≈ 4.5 µM)
[13]; Staphylococcus aureus, single strain of doxycycline-resistant MRSA-CA
  MIC: 8 µg/mL (≈ 18 µM)
[14]; 72 h
  MIC Range: 0.03 to 0.25 µg/mL
[14]; Chlamydia trachomatis, 72 h
  MIC50: 0.06 µg/mL (≈ 0.135 µM)
  MIC90: 0.125 µg/mL (≈ 0.281 µM)
[14]; Chlamydia trachomatis, after passage, read-out: MBC 90%
  MBC: 0.125 µg/mL (≈ 0.281 µM)
[14]; after passage
  MBC Range: 0.03 to 0.25 µg/mL
[15]; 72 h
  MIC Range: 0.0625 to 0.125 µg/mL
[15]; Chlamydia pneumoniae, 72 h
  MIC50: 0.125 µg/mL (≈ 0.281 µM)
  MIC90: 0.125 µg/mL (≈ 0.281 µM)
[15]; Chlamydia pneumoniae, after passage, read-out: MBC 90%
  MBC: 0.5 µg/mL (≈ 1.13 µM)
[15]; after passage
  MBC 90%: 0.5 µg/mL (≈ 1.13 µM)
  MBC Range: 0.25 to 0.5 µg/mL

## CN(C)c1ccc(O)c2c1C[C@H]1C[C@H]3[C@H](N(C)C)C(O)=C(C(N)=O)C(=O)[C@@]3(O)C(O)=C1C2=O [Minocycline, minocycline]
[2]
  MIC: 0.25 µg/mL (≈ 0.546 µM)
[3]
  MIC: 0.06 µg/mL (≈ 0.131 µM)
[6]; [22]
  MIC Range: 0.25 to 0.5 µg/mL
[6]; [23]
  MIC: 8 µg/mL (≈ 17.5 µM)
[6]; [24]
  MIC50: 0.06 µg/mL (≈ 0.131 µM)
[7]
  MIC50: 0.06 µg/mL (≈ 0.131 µM)
[8]
  MIC Range: 0.5 to 4 µg/mL
[9]; Klebsiella pneumoniae
  MIC50: 4 µg/mL (≈ 8.74 µM)
  MIC90: > 32 µg/mL
[9]; Klebsiella pneumoniae, K. pneumoniae strain PBS # 266, tetD
  MIC: 64 µg/mL (≈ 140 µM)
[16]
  MIC90: 16 µg/mL (≈ 35 µM)
[17]
  MIC50: 2 µg/mL (≈ 4.37 µM)
